From patent US6403788B1, “Non-genotoxic metalloporphyrins as synthetic catalytic scavengers of reactive oxygen species” (Eukarion, Inc., priority 2000, dated 2002)

Columns and labels:
Format in all cases: biochemical, phage ΦX 174
[1] = test system: ΦX 174 DNA Plasmid (Form I); experiment: Cleavage of ΦX 174 DNA plasmid (form I), activation with ascorbate in the presence of air; details: for S (single-strand breaks per DNA molecule) / form % I / form % II / form % III: DNA 3.5 nM
Description: (§1) The DNA cleavage activity was quantified in terms of number of single-strand breaks per DNA molecule according to the equation […], Io=% form I (supercoiled DNA) in the DNA control, and I=% form I in the experiment (see Bernadou et al, Biochemistry, 28: 7268-7275, (1989)). This assay is very sensitive and is able to detect very low levels of DNA activity. S values less than S=1.0 are indicative of very low DNA cleavage activity when the compounds are at a concentration of equal to or less than 1000 nM and KHSO5 is present at a concentration of equal to or less than 100 μM.
(§2) ΦX 174 DNA digestion conditions for standard experiments were as follows: commercially available DNA was diluted to 50 μg/mL in phosphate buffer (10 mM, pH 7.5). The reaction involved 5 μL of ΦX 174 DNA (50 μg/mL, 74.8 μM in base pairs), 5 μL of 40 mM phosphate buffer, pH 7.5 with 400 mM NaCl, 5 μL of metalloporphyrin in double-distilled water or 5 μL of iron-bleomycin complex in double-distilled water, and 5 μL of KHSO5 or 5 μL of H2O2 or 5 μL of ascorbate in double-distilled water. Preincubation of DNA and metalloporphyrins or iron-bleomycin complex was performed for about 15 min. The digestion time in the presence of KHSO5 was 10 min, of H2O2 was 30 min and of ascorbate was 30 min at 20° C. DNA cleavage was monitored by agarose gel electrophoresis. Reactions with KHSO5 were first quenched by 2 μL of 100 mM Hepes buffer, pH 8. In all cases, reactions were quenched by 5 μL of a stopping reagent. The stopping reagent consisted of 250 mM Hepes buffer, pH 7.4, containing 75% glycerol and 0.05% bromophenol blue. Reaction mixtures were then run in 0.8% agarose slab horizontal gel containing ethidium bromide […], at constant current (25 mA for 15h), in 89 mM Tris-borate buffer and 2.5 mM EDTA pH 8.3. Bands were located by WV light (254 nm), photographed, and quantitated by microdensitometry. The correction coefficient 1.47±0.30 was used for decreased stainability of form I DNA vs form II DNA and form III DNA.

[2] = test system: ΦX 174 DNA Plasmid (Form I); experiment: Cleavage of ΦX 174 DNA plasmid (form I), compound alone or activated with KHSO5
Description: as §1, §2

[3] = test system: ΦX 174 DNA Plasmid (Form I); experiment: Cleavage of ΦX 174 DNA plasmid (form I), activation with H2O2; details: DNA 3.5 nM, compound 1 μM, H2O2 1 mM
Description: as §1, §2

[4] = compound 10 nM, without ascorbate (Table II)
[5] = DNA 3.5 nM, compound 1 μM, KHSO5 100 μM

Bleomycin [reference compound]
DNA cleavage ([1]; 1 μM concentration, ascorbate): all DNA is cleaved in small fragments | S (single-strand breaks per DNA molecule) ([1]; compound 10 nM, Asc. 1 mM): 7.79 SSBs | form % I ([1]; compound 10 nM, Asc. 1 mM): 7% | form % II ([1]; compound 10 nM, Asc. 1 mM): 71% | form % III ([1]; compound 10 nM, Asc. 1 mM): 22% | S (single-strand breaks per DNA molecule) [1, 4]: 0.01 SSBs | form % I [1, 4]: 94% | form % II [1, 4]: 6% | form % III [1, 4]: 0% | times more active in DNA cleavage than Structural Formula V ([1]; same concentration (10 nM), ascorbate 1 mM, from experiments 2, 3, 7 and 8): 768 times

CC(=O)[O-].CC(=O)[O-].CC(=O)[O-].CC(=O)[O-].CC(=O)[O-].CC[N+](C)(CC)CCNS(=O)(=O)c1c(C)cc(C)c(C2=C3C=CC4=[N+]3[Fe-]35[n]6c2ccc6C(c2c(C)cc(C)c(S(=O)(=O)NCC[N+](C)(CC)CC)c2C)=C2C=CC(=[N+]23)C(c2c(C)cc(C)c(S(=O)(=O)NCC[N+](C)(CC)CC)c2C)=c2ccc([n]25)=C4c2c(C)cc(C)c(S(=O)(=O)NCC[N+](C)(CC)CC)c2C)c1C [Structural Formula VIII, meso-tetrakis[3-(N-(2-(N,N,N-diethylmethylammonio)ethyl)aminosulfonyl)-2,4,6-trimethylphenyl]porphyrinato diaqua-iron(III) pentaacetate]
S (single-strand breaks per DNA molecule) [2, 5]: 0.03 SSBs | form % I [2, 5]: 90% | form % II [2, 5]: 10% | form % III [2, 5]: 0% | DNA cleavage activity in oxidative medium ([2]; oxidative medium (KHSO5)): do not exhibit any significant DNA cleavage activity | S (single-strand breaks per DNA molecule) [3]: 0.13 SSBs | form % I [3]: 86% | form % II [3]: 14% | form % III [3]: 0% | S (single-strand breaks per DNA molecule) ([1]; compound 1 μM, Asc. 1 mM): 1.61 SSBs | form % I ([1]; compound 1 μM, Asc. 1 mM): 43% | form % II ([1]; compound 1 μM, Asc. 1 mM): 57% | form % III ([1]; compound 1 μM, Asc. 1 mM): 0%
